Data published in patent US20250074891A1 (Anaxis Pharma Pty Ltd., priority 2021, published 2025).

What was measured:
MLKL (full length) = MLKL (full length) (Homo sapiens (Human), UniProt Q8NB16); assay: KINOMEscan binding assay, MLKL (full length); conditions: Table 36
Description: Kinase assays. For most assays, kinase-tagged T7 phage strains were grown in parallel in 24-well blocks in an E. coli host derived from the BL21 strain. E. coli were grown to log-phase and infected with T7 phage from a frozen stock (multiplicity of infection=0.4) and incubated with shaking at 32° C. until lysis (90-150 minutes).
The Hill Slope was set to −1.

[1] = system: U937 human histiocytic leukemia cell line; assay: Cellular assay: inhibition of TSQ induced necroptosis (CellTitre-Glo); conditions: Homo sapiens, U-937; U937 cells, TSQ cocktail, 48 hours, Table 38; read-out: Inhibition of TSQ-induced necroptosis (IC50 cell-based assay)
In short: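 U937 cells (20,000/well) pre-dosed with compound (10-point, 1:3 from 36 μM, 0.3% DMSO), then TSQ (hTNF-Fc 100 ng/ml, Smac mimetic 500 nM, Q-VD-OPh 10 μM) for 48 h at 37 °C. Viability by CellTiter-Glo luminescence, normalised to DMSO (100%) and DMSO+TSQ (0%); IC50 from 4-parameter fit.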

U937 cells = assay: Counter screen: cell viability without TSQ cocktail (off-target effect); design: species or system human; conditions: Homo sapiens, U-937, Table 38, read-out: Off-target effect (IC50 cell-based assay)
Description: Counter screen: In parallel, all compounds were tested for their ability to affect cell viability. The same U937 cells were treated with compound in DMSO without the TSQ cocktail. This counter screen enabled evaluation of off-target effects. In this case, cell viability was measured by CelltiterGlo.

endogenous MLKL in U937 = endogenous MLKL in U937 (Homo sapiens (Human), UniProt Q8NB16); assay: Degradation assay: degradation of endogenous MLKL in human cells (Western blot); conditions: 24 h incubation, read-out: Degradation of endogenous MLKL in U937 (DC50 cell-based assay in μM)
Description: DEGRADATION ASSAY: Screening Compounds Procedure to Evaluate the Activity of Compounds in Degrading Endogenous MLKL in Human Cell
The human monocyte cell line (U937) was seeded on the day of the experiment in a 24-well plate at a cell density of 5*10^5 cells per well in a volume of 0.5 mL per well.
The compound was diluted in DMSO with a starting concentration of 10 mM and titrated stepwise with a dilution of 1:5. 0.5 μL of the compound dilution was added to the appropriate well to achieve a final concentration of 10; 2; 0.4; 0.08 and 0.016 μM. A DMSO only well was included as control.
The cells were incubated for 24 h in the presence of the compound at 37° C. and 10% CO2.
After the 24 h incubation period, the medium was removed and cells washed with 0.5 mL PBS. The cells were then lysed directly in 60 μL of 1×SDS gel loading buffer.
The cell lysate was heat-denatured at […] for 10 min. 10 μL of lysate per well were run on 18-well 4-15% Criterion TGX stain free gels (BIO-RAD). The proteins were then transferred onto nitrocellulose membrane with a wet transfer protocol in the Criterion Blotter (BIO-RAD).
Membranes were blocked with 5% skim milk in TBST. Primary antibody against MLKL (clone 3H1, MABC604 Merck) was used at 1:2000 dilution in TBST with 1% BSA and left shaking over night at 4° C. After washes with TBST, the membranes were incubated with goat anti-rat IgG HRP-conjugated antibody (Southern Biotech) in 1% skim milk TBST at 1:10000 dilution for 1 h at room temperature. After TBST washes the bands were imaged on the ChemiDoc MP Imaging Systm (BIO-RAD) with Immobilion Western Chemiluminescent HRP Substrate Forte (Millipore). The loading control GAPDH was probed for with rabbit anti-GAPDH (CST 14C10) at 1:2000 dilution in 1% BSA TBST over night at 4° C. TBST washes were followed by incubation with goat anti-rabbit IgG HRP-conjugated antibody (Southern Biotech) in 1% skim milk TBST at 1:10000 dilution for 1 h at room temperature followed by TBST washes. The signal was detected as described above.
The band intensity was measured in the ImageLab Software (BIO-RAD) and the MLKL values adjusted for loading with GAPDH. The percentage of degradation was calculated by normalizing the compound treated values to the DMSO only control.

Sequence of endogenous MLKL in U937 (Q8NB16 whole entry): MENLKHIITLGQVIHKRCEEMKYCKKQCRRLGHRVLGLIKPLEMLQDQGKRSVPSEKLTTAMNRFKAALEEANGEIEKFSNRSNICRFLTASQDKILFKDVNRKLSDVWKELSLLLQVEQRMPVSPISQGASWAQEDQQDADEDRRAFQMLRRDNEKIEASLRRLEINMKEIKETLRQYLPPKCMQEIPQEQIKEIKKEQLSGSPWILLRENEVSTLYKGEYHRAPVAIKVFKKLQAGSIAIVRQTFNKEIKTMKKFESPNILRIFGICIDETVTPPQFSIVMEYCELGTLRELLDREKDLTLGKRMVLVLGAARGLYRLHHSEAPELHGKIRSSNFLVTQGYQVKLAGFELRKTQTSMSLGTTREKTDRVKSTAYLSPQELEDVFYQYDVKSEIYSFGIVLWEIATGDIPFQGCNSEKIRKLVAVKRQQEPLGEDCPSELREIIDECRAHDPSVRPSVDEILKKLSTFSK
Sequence of MLKL (full length) (Q8NB16 whole entry): as above

In the case of `CCS(=O)(=O)Nc1ccc(-c2n[nH]c(Nc3ccc(C(=O)OCCCCC(=O)N[C@H](C(=O)N4C[C@H](O)C[C@H]4C(=O)NCc4ccc(-c5scnc5C)cc4)C(C)(C)C)cn3)c2C(N)=O)cc1O[C@@H](C)c1ccc(F)cc1` [Compound 1039, 4-{[(2S)-1-[(2S,4R)-4-hydroxy-2-({[4-(4-methyl-1,3-thiazol-5-yl)phenyl]methyl}carbamoyl)pyrrolidin-1-yl]-3,3-dimethyl-1-oxobutan-2-yl]carbamoyl}butyl 6-[(4-carbamoyl-3-{4-ethanesulfonamido-3-[(1S)-1-(4-fluorophenyl)ethoxy]phenyl}-1H-pyrazol-5-yl)amino]pyridine-3-carboxylate], the Kd (MLKL (full length)) is reported as 0.01 to 1 µM, the IC50 [1] is reported as < 1 µM and the IC50 (U937 cells) is reported as > 10 µM. The DC50 (endogenous MLKL in U937) was < 1 µM.

For `CCS(=O)(=O)Nc1ccc(-c2n[nH]c(Nc3ccc(C(=O)OCC(=O)N[C@H](C(=O)N4C[C@H](O)C[C@H]4C(=O)NCc4ccc(-c5scnc5C)cc4)C(C)(C)C)cn3)c2C(N)=O)cc1O[C@@H](C)c1ccc(F)cc1` [Compound 1041, {[(2S)-1-[(2S,4R)-4-hydroxy-2-({[4-(4-methyl-1,3-thiazol-5-yl)phenyl]methyl}carbamoyl)pyrrolidin-1-yl]-3,3-dimethyl-1-oxobutan-2-yl]carbamoyl}methyl 6-[(4-carbamoyl-3-{4-ethanesulfonamido-3-[(1S)-1-(4-fluorophenyl)ethoxy]phenyl}-1H-pyrazol-5-yl)amino]pyridine-3-carboxylate], the Kd (MLKL (full length)) was < 0.01 µM, the IC50 [1] was < 1 µM and the IC50 (U937 cells) was > 10 µM. The DC50 (endogenous MLKL in U937) was < 1 µM.

For `CCS(=O)(=O)Nc1ccc(-c2n[nH]c(Nc3ccnc(OCCOCCOCCOCCOCCNC(=O)COc4cccc5c4C(=O)N(C4CCC(=O)NC4=O)C5=O)c3)c2C(N)=O)cc1` (centres unmarked) [Compound 1001, 5-[(2-{[14-(2-{[2-(2,6-dioxopiperidin-3-yl)-1,3-dioxo-2,3-dihydro-1H-isoindol-4-yl]oxy}acetamido)-3,6,9,12-tetraoxatetradecan-1-yl]oxy}pyridin-4-yl)amino]-3-(4-ethanesulfonamidophenyl)-1H-pyrazole-4-carboxamide], the Kd (MLKL (full length)) was < 0.01 µM, the IC50 [1] was > 10 µM and the IC50 (U937 cells) was > 10 µM. For the same compound, the DC50 (endogenous MLKL in U937) was 1 to 10 µM.

`CCS(=O)(=O)Nc1ccc(-c2n[nH]c(Nc3ccnc(OCCOCCOCCOCCOCCOCCNC(=O)COc4cccc5c4C(=O)N(C4CCC(=O)NC4=O)C5=O)c3)c2C(N)=O)cc1` (centres unmarked) [Compound 1005, 5-[(2-{[17-(2-{[2-(2,6-dioxopiperidin-3-yl)-1,3-dioxo-2,3-dihydro-1H-isoindol-4-yl]oxy}acetamido)-3,6,9,12,15-pentaoxaheptadecan-1-yl]oxy}pyridin-4-yl)amino]-3-(4-ethanes-ulfonamidophenyl)-1H-pyrazole-4-carboxamide] was tested, and the Kd (MLKL (full length)) was < 0.01 µM, the IC50 [1] was > 10 µM and the IC50 (U937 cells) was > 10 µM. The DC50 (endogenous MLKL in U937) was 1 to 10 µM.

In the case of `Cc1ncsc1-c1ccc(CNC(=O)[C@@H]2C[C@@H](O)CN2C(=O)[C@@H](NC(=O)CCCCCOc2ccc(Nc3[nH]nc(-c4ccc(NS(=O)(=O)C(F)F)c(O[C@@H](C)c5ccc(F)cc5)c4)c3C(N)=O)nc2)C(C)(C)C)cc1` [Compound 1048, 3-[4-(difluoromethanesulfonamido)-3-[(1S)-1-(4-fluorophenyl)ethoxy]phenyl]-5-({5-[(5-{[(2S)-1-[(2S,4R)-4-hydroxy-2-({[4-(4-methyl-1,3-thiazol-5-yl)phenyl]methyl}carbamoyl)pyrrolidin-1-yl]-3,3-dimethyl-1-oxobutan-2-yl]carbamoyl}pentyl)oxy]pyridin-2-yl}amino)-1H-pyrazole-4-carboxamide], the Kd (MLKL (full length)) is reported as < 0.01 µM, the IC50 [1] is reported as < 1 µM and the IC50 (U937 cells) is reported as > 10 µM. For the same compound, the DC50 (endogenous MLKL in U937) was < 1 µM.
